In ChEMBL document CHEMBL1201862, “PubChem BioAssay data set” (2004):
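Grown in 96-well plates, cells were treated for 48 hours with each compound at five concentrations. Insufficient inhibition: endpoint recorded as highest concentration tested. Abbreviation: GI50, concentration required for 50% inhibition of growth.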 Activity calls are given as the source filed them. Rule as the data show it: active = GI50 up to about 1.1 µM and inactive = higher.

Key:
Test in all cases: NCI-60 cell line screen, 48 h
A549 = test system: A549
RPMI-8226 = test system: RPMI-8226
SF-295 = test system: SF-295
MDA-MB-435 = test system: MDA-MB-435
NCI-H226 = test system: NCI-H226
OVCAR-4 = test system: OVCAR-4
OVCAR-5 = test system: OVCAR-5
SK-MEL-5 = test system: SK-MEL-5
SF-268 = test system: SF-268
HCT-15 = test system: HCT-15
SN12C = test system: SN12C
DU-145 = test system: DU-145
NCI-H23 = test system: NCI-H23
SNB-75 = test system: SNB-75
Hs-578T = test system: Hs-578T
SNB-19 = test system: SNB-19
SK-OV-3 = test system: SK-OV-3
MDA-MB-231 = test system: MDA-MB-231
KM12 = test system: KM12
ACHN = test system: ACHN
TK-10 = test system: TK-10
IGROV-1 = test system: IGROV-1
CAKI-1 = test system: CAKI-1
HCT-116 = test system: HCT-116
PC-3 = test system: PC-3
RXF 393 = test system: RXF 393
SK-MEL-28 = test system: SK-MEL-28
SF-539 = test system: SF-539
SR = test system: SR
MDA-N = test system: MDA-N
786-0 = test system: 786-0
OVCAR-3 = test system: OVCAR-3
Malme-3M = test system: Malme-3M
SK-MEL-2 = test system: SK-MEL-2
NCI/ADR-RES = test system: NCI/ADR-RES
NCI-H460 = test system: NCI-H460
UACC-257 = test system: UACC-257
M14 = test system: M14
OVCAR-8 = test system: OVCAR-8
HOP-62 = test system: HOP-62
U-251 = test system: U-251
EKVX = test system: EKVX
CCRF-CEM = test system: CCRF-CEM
SW-620 = test system: SW-620
HCC 2998 = test system: HCC 2998
A498 = test system: A498
HOP-92 = test system: HOP-92
UO-31 = test system: UO-31
LOX IMVI = test system: LOX IMVI
T47D = test system: T47D
K562 = test system: K562
HT-29 = test system: HT-29
BT-549 = test system: BT-549
MCF7 = test system: MCF7
MOLT-4 = test system: MOLT-4
HL-60 = test system: HL-60
UACC-62 = test system: UACC-62
COLO 205 = test system: COLO 205
NCI-H522 = test system: NCI-H522

For `COc1ccc(C(C)NNC(=O)c2ccncc2)cc1F` (stereo not drawn), which GI50 (A549) is on record?
Its GI50 is > 100 µM (inactive).

And the GI50 (RPMI-8226)?
Its GI50 is > 100 µM (inactive).

And the GI50 (SF-295)?
Its GI50 is > 100 µM (inactive).

What about the GI50 (MDA-MB-435) of the same molecule?
The GI50 was > 100 µM (inactive).

And the GI50 (NCI-H226)?
The GI50 was > 100 µM (inactive).

And the GI50 (OVCAR-4)?
Its GI50 is > 100 µM (inactive).

What about the GI50 (OVCAR-5) of the same molecule?
The GI50 was > 100 µM (inactive).

What about the GI50 (SK-MEL-5) of the same molecule?
Its GI50 is > 100 µM (inactive).

And the GI50 (SF-268)?
The GI50 was > 100 µM (inactive).

And the GI50 (HCT-15)?
The GI50 was over 100 µM.

What about the GI50 (SN12C) of the same molecule?
The GI50 was > 100 µM (inactive).

What about the GI50 (DU-145) of the same molecule?
Its GI50 is > 100 µM (inactive).

What about the GI50 (NCI-H23) of the same molecule?
The GI50 was > 100 µM (inactive).

And the GI50 (SNB-75)?
Its GI50 is > 100 µM (inactive).

And the GI50 (Hs-578T)?
The GI50 was > 100 µM (inactive).

And the GI50 (SNB-19)?
Its GI50 is > 100 µM (inactive).

What about the GI50 (SK-OV-3) of the same molecule?
Its GI50 is > 100 µM (inactive).

And the GI50 (MDA-MB-231)?
The GI50 was > 100 µM (inactive).

And the GI50 (KM12)?
Its GI50 is > 100 µM (inactive).

What about the GI50 (ACHN) of the same molecule?
The GI50 was > 100 µM (inactive).

And the GI50 (TK-10)?
Its GI50 is > 100 µM (inactive).

And the GI50 (IGROV-1)?
Its GI50 is > 100 µM (inactive).

And the GI50 (CAKI-1)?
The GI50 was > 100 µM (inactive).

And the GI50 (HCT-116)?
Its GI50 is > 100 µM (inactive).

What about the GI50 (PC-3) of the same molecule?
Its GI50 is > 100 µM (inactive).

What about the GI50 (RXF 393) of the same molecule?
Its GI50 is > 100 µM (inactive).

What about the GI50 (SK-MEL-28) of the same molecule?
The GI50 was > 100 µM (inactive).

What about the GI50 (SF-539) of the same molecule?
Its GI50 is > 100 µM (inactive).

What about the GI50 (SR) of the same molecule?
Its GI50 is > 100 µM (inactive).

And the GI50 (MDA-N)?
Its GI50 is > 100 µM (inactive).

And the GI50 (786-0)?
Its GI50 is > 100 µM (inactive).

And the GI50 (OVCAR-3)?
Its GI50 is > 100 µM (inactive).

What about the GI50 (Malme-3M) of the same molecule?
Its GI50 is > 100 µM (inactive).

And the GI50 (SK-MEL-2)?
Its GI50 is > 100 µM (inactive).

What about the GI50 (NCI/ADR-RES) of the same molecule?
The GI50 was > 100 µM (inactive).

And the GI50 (NCI-H460)?
Its GI50 is > 100 µM (inactive).

And the GI50 (UACC-257)?
The GI50 was > 100 µM (inactive).

What about the GI50 (M14) of the same molecule?
The GI50 was > 100 µM (inactive).

And the GI50 (OVCAR-8)?
Its GI50 is > 100 µM (inactive).

What about the GI50 (HOP-62) of the same molecule?
The GI50 was > 100 µM (inactive).

What about the GI50 (U-251) of the same molecule?
Its GI50 is > 100 µM (inactive).

What about the GI50 (EKVX) of the same molecule?
Its GI50 is > 100 µM (inactive).

And the GI50 (CCRF-CEM)?
Its GI50 is > 100 µM (inactive).

And the GI50 (SW-620)?
The GI50 was > 100 µM (inactive).

What about the GI50 (HCC 2998) of the same molecule?
Its GI50 is > 100 µM (inactive).

What about the GI50 (A498) of the same molecule?
The GI50 was > 100 µM (inactive).

What about the GI50 (HOP-92) of the same molecule?
Its GI50 is > 100 µM (inactive).

And the GI50 (UO-31)?
Its GI50 is > 100 µM (inactive).

What about the GI50 (LOX IMVI) of the same molecule?
The GI50 was > 100 µM (inactive).

And the GI50 (T47D)?
The GI50 was > 100 µM (inactive).

And the GI50 (K562)?
The GI50 was > 100 µM (inactive).

What about the GI50 (HT-29) of the same molecule?
Its GI50 is > 100 µM (inactive).

What about the GI50 (BT-549) of the same molecule?
Its GI50 is > 100 µM (inactive).

What about the GI50 (MCF7) of the same molecule?
The GI50 was > 100 µM (inactive).

What about the GI50 (MOLT-4) of the same molecule?
The GI50 was > 100 µM (inactive).

And the GI50 (HL-60)?
Its GI50 is > 100 µM (inactive).

And the GI50 (UACC-62)?
Its GI50 is > 100 µM (inactive).

What about the GI50 (COLO 205) of the same molecule?
The GI50 was > 100 µM (inactive).

What does the source list for `Cc1ccc2c(c1)[n+]([O-])c(N)n[n+]2[O-]`?
GI50 (A549): > 100 µM (inactive); GI50 (RPMI-8226): > 100 µM (inactive); GI50 (SF-295): > 100 µM (inactive); GI50 (MDA-MB-435): > 100 µM (inactive); GI50 (NCI-H226): > 100 µM (inactive); GI50 (OVCAR-4): > 100 µM (inactive); GI50 (OVCAR-5): > 100 µM (inactive); GI50 (SK-MEL-5): 37.6 µM (inactive); GI50 (SF-268): > 100 µM (inactive); GI50 (HCT-15): 64.9 µM; GI50 (SN12C): > 100 µM (inactive); GI50 (DU-145): > 100 µM (inactive); GI50 (NCI-H23): 63.2 µM (inactive); GI50 (SNB-75): 58.1 µM (inactive); GI50 (Hs-578T): > 100 µM (inactive); GI50 (SNB-19): > 100 µM (inactive); GI50 (SK-OV-3): > 100 µM (inactive); GI50 (MDA-MB-231): > 100 µM (inactive); GI50 (KM12): > 100 µM (inactive); GI50 (ACHN): > 100 µM (inactive); GI50 (TK-10): > 100 µM (inactive); GI50 (IGROV-1): 51.5 µM (inactive); GI50 (CAKI-1): > 100 µM (inactive); GI50 (HCT-116): > 100 µM (inactive); GI50 (PC-3): > 100 µM (inactive); GI50 (SK-MEL-28): > 100 µM (inactive); GI50 (SF-539): > 100 µM (inactive); GI50 (SR): > 100 µM (inactive); GI50 (MDA-N): > 100 µM (inactive); GI50 (786-0): > 100 µM (inactive); GI50 (OVCAR-3): > 100 µM (inactive); GI50 (SK-MEL-2): > 100 µM (inactive); GI50 (NCI/ADR-RES): > 100 µM (inactive); GI50 (NCI-H460): 47.8 µM (inactive); GI50 (UACC-257): > 100 µM (inactive); GI50 (M14): > 100 µM (inactive); GI50 (OVCAR-8): > 100 µM (inactive); GI50 (HOP-62): > 100 µM (inactive); GI50 (U-251): > 100 µM (inactive); GI50 (EKVX): > 100 µM (inactive); GI50 (CCRF-CEM): 91.2 µM (inactive); GI50 (SW-620): > 100 µM (inactive); GI50 (A498): 75.3 µM (inactive); GI50 (UO-31): > 100 µM (inactive); GI50 (LOX IMVI): 85.3 µM (inactive); GI50 (T47D): 93.5 µM (inactive); GI50 (K562): > 100 µM (inactive); GI50 (HT-29): > 100 µM (inactive); GI50 (BT-549): > 100 µM (inactive); GI50 (MCF7): > 100 µM (inactive); GI50 (MOLT-4): > 100 µM (inactive); GI50 (HL-60): > 100 µM (inactive); GI50 (NCI-H522): 39.6 µM (inactive); GI50 (UACC-62): > 10 µM (inactive); GI50 (COLO 205): 63.1 µM (inactive)
